For 45 compounds, IC50 results are on record in patent US12522607B2, “Substituted pyrazolo[3,4-d]pyrimidines as wee-1 inhibitors” (WIGEN BIOMEDICINE TECHNOLOGY (SHANGHAI) CO., LTD., priority 2020, dated 2026).

Usually IC50 stands for the concentration that gives 50% inhibition.

For assay [1], the system named is HT29 cells. The experiment in a line: Antiproliferative activity against HT29 cells (Cell Titer-Lumi, ATP content). It counts as cell-based. To be noted: Homo sapiens, HT-29, 72 after compound addition, read-out: HT-29 cells Anti-proliferative activity (IC50 for the inhibition against HT-29 cell growth). As to the method: Example 343. Assay for Antiproliferative Activity Against HT29 Cells
3000 HT29 cells were seed in a 384-well plate (Fisher 142762). After the cells adhered to the wall overnight, the compounds diluted in a gradient were added. 72 later, Cell Titer-Lumi (Beyotime C0068XL) was added to determine the content of ATP in the cells. The growth of the cells was evaluated, and the IC50 for the inhibition of the compounds against cell growth was calculated.

Assay [2] addresses T1, Wee-1 kinase (Homo sapiens, UniProt P30291).
T1 construct: purchased Invitrogen
The experiment in a line: Inhibitory activity against Wee-1 kinase (Lanthra Screen Wee-1 kinase kit, Tracer 178). Conditions: Wee-1 kinase 5 nM, Tracer 178 50 nM, 1 h room temperature. Type of assay: binding. As to the method:
Example 342. Assay for Inhibitory Activity of Compounds Against Wee-1 Kinase
The inhibitory activity of compounds against Wee-1 kinase was determined by using the Lanthra Screen Wee-1 kinase kit (Invitrogen). 5 μL of the compound diluted in a gradient with DMSO, 5 μL. of Wee-1 kinase (at a final concentration of 5 nM), 5 μL of an Eu-Anti-GST antibody (at a final concentration of 2 nM) mixture and 5 μL of kinase Tracer 178 (at a final concentration of 50 nM) were mixed well. The plate was read after incubation at room temperature for one hour. For comparison with the DMSO solvent control group, IC50 for the inhibition activity of the compounds against Wee-1 kinase was calculated.

T1 sequence (P30291 whole entry): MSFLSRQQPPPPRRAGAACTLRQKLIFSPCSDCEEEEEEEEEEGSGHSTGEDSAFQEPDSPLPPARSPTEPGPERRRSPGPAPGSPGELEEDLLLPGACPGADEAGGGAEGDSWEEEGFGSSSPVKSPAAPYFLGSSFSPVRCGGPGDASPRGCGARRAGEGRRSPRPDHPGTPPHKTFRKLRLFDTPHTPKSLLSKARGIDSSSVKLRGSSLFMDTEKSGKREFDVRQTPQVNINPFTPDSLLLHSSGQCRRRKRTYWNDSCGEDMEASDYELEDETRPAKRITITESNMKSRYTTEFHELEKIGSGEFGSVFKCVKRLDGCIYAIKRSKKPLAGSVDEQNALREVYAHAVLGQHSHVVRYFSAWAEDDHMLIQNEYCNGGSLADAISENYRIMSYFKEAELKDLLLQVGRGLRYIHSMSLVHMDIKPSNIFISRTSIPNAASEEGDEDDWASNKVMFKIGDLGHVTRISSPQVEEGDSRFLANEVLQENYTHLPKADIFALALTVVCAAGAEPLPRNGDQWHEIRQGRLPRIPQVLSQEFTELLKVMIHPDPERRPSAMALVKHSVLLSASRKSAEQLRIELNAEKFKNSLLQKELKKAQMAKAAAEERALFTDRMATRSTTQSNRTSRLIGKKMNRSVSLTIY

As to `C=CCn1c(=O)c2cnc(Nc3ccc(N4CCN(C)CC4)cc3)nc2n1-c1ccc(=O)n(C)n1` [Compound 1, 2-allyl-1-(1-methyl-6-oxo-1,6-dihydropyridazin-3-yl)-6-((4-(4-methylpiperazin-1-yl)phenyl)amino)-1,2-dihydro-3H-pyrazolo[3,4-d]pyrimidin-3-one], the IC50 in assay [1] is greater than 3000 nM; in assay [2] it was greater than 100 nM.
In the case of `C=CCn1c(=O)c2cnc(Nc3ccc(N4CCN(C)CC4)cc3)nc2n1-c1ccc(=O)n(CC)n1` [Compound 2], the IC50 in assay [1] was greater than 3000 nM; in assay [2], greater than 100 nM.
Regarding `C=CCn1c(=O)c2cnc(Nc3ccc(N4CCN(C)CC4)cc3)nc2n1-c1ccc(=O)n(CC(C)C)n1` [Compound 4], the IC50 was 1000 to 3000 nM in assay [1] and 30 to 100 nM in assay [2].
Regarding `C=CCn1c(=O)c2cnc(Nc3ccc(N4CCN(C)CC4)cc3)nc2n1-c1ccc(=O)n(C(C)CC)n1` (stereo not drawn) [Compound 5], the IC50 is no more than 1000 nM in assay [1] and no more than 30 nM in assay [2].
Turning to `C=CCn1c(=O)c2cnc(Nc3ccc(N4CCN(C)CC4)cc3)nc2n1-c1ccc(=O)n(CC(C)(C)C)n1` [Compound 6], the IC50 in assay [1] is 1000 to 3000 nM; in assay [2], 30 to 100 nM.
`C=CCn1c(=O)c2cnc(Nc3ccc(N4CCN(C)CC4)cc3)nc2n1-c1ccc(=O)n(CC(F)F)n1` [Compound 7]: the figures for the IC50 in assay [1] and in assay [2] were 1000 to 3000 nM and 30 to 100 nM, respectively.
Turning to `C=CCn1c(=O)c2cnc(Nc3ccc(N4CCN(C)CC4)cc3)nc2n1-c1ccc(=O)n(CC(F)(F)F)n1` [Compound 8], the IC50 in assay [1] fell in the range of 1000 to 3000 nM; in assay [2] it was 30 to 100 nM.
`C=CCn1c(=O)c2cnc(Nc3ccc(N4CCN(C)CC4)cc3)nc2n1-c1ccc(=O)n(C(C)(C)C)n1` [Compound 9]: the IC50 in assay [1] is no more than 1000 nM; in assay [2], no more than 30 nM.
For the compound `C=CCn1c(=O)c2cnc(Nc3ccc(N4CCN(C)CC4)cc3)nc2n1-c1ccc(=O)n(C(C)(C)C(F)(F)F)n1` [Compound 10], the results for the IC50 in assay [1] and in assay [2] were no more than 1000 nM and no more than 30 nM, respectively.
Take `C=CCn1c(=O)c2cnc(Nc3ccc(N4CCN(C)CC4)cc3)nc2n1-c1ccc(=O)n(C2CC2)n1` [Compound 11]: the IC50 is no more than 1000 nM in assay [1] and no more than 30 nM in assay [2].
For `C=CCn1c(=O)c2cnc(Nc3ccc(N4CCN(C)CC4)cc3)nc2n1-c1ccc(=O)n(C2CCC2)n1` [Compound 12], the IC50 in assay [1] was no more than 1000 nM; in assay [2], no more than 30 nM.
On to `C=CCn1c(=O)c2cnc(Nc3ccc(N4CCN(C)CC4)cc3)nc2n1-c1ccc(=O)n(C2CCCC2)n1` [Compound 13], for which the IC50 in assay [1] is no more than 1000 nM; in assay [2], no more than 30 nM.
As to `C=CCn1c(=O)c2cnc(Nc3ccc(N4CCN(C)CC4)cc3)nc2n1-c1ccc(=O)n(C2COC2)n1` [Compound 14], the figures for the half-inhibitory concentration (IC50) in assay [1] and in assay [2] were greater than 3000 nM and 30 to 100 nM, respectively.
For `C=CCn1c(=O)c2cnc(Nc3ccc(N4CCN(C)CC4)cc3)nc2n1-c1ccc(=O)n(C2CC(F)(F)C2)n1` [Compound 15] the same measures were 1000 to 3000 nM and 30 to 100 nM.
Take `C=CCn1c(=O)c2cnc(Nc3ccc(N4CCN(C)CC4)cc3)nc2n1-c1ccc(=O)n(CC2CC2)n1` [Compound 16]: the IC50 in assay [1] was in the range of 1000 to 3000 nM; in assay [2] it was 30 to 100 nM.
For `C=CCn1c(=O)c2cnc(Nc3ccc(N4CCN(C)CC4)cc3)nc2n1-c1ccc(=O)n(CC2CCC2)n1` [Compound 17] the same measures were 1000 to 3000 nM and 30 to 100 nM.
Taken in the same sequence, the figures for `C=CCn1c(=O)c2cnc(Nc3ccc(N4CCN(C)CC4)cc3)nc2n1-c1ccc(=O)n(C(C)(C)CO)n1` [Compound 18] were 1000 to 3000 nM and no more than 30 nM.
For the compound `C=CCn1c(=O)c2cnc(Nc3ccc(N4CCN(C)CC4)cc3)nc2n1-c1ccc(=O)n(C(C)(C)COC)n1` [Compound 19], the IC50 in assay [1] was 1000 to 3000 nM; in assay [2], no more than 30 nM.
Consider `C=CCn1c(=O)c2cnc(Nc3ccc(N4CCN(C)CC4)cc3)nc2n1-c1ccc(=O)n(C(C)C)c1` [Compound 20], for which the figures for the IC50 in assay [1] and in assay [2] were no more than 1000 nM and no more than 30 nM, respectively.
Taken in the same sequence, the figures for `C=CCn1c(=O)c2cnc(Nc3ccc(N4CCN(C)CC4)cc3)nc2n1-c1ccc(=O)n(C(C)(C)C)c1` [Compound 21] were no more than 1000 nM and no more than 30 nM.
On to `C=CCn1c(=O)c2cnc(Nc3ccc(N4CCN(C)CC4)cc3)nc2n1-c1cc(C)c(=O)n(C(C)C)n1` [Compound 22], for which the IC50 in assay [1] was no more than 1000 nM; in assay [2] it was no more than 30 nM.
`C=CCn1c(=O)c2cnc(Nc3ccc(N4CCN(C)CC4)cc3)nc2n1-c1cc(OC)c(=O)n(C(C)C)n1` [Compound 23]: the IC50 in assay [1] was greater than 3000 nM; in assay [2], no more than 30 nM.
With `C=CCn1c(=O)c2cnc(Nc3ccc(N4CCN(C)CC4)cc3)nc2n1-c1cc(F)c(=O)n(C(C)C)c1` [Compound 24], the IC50 in assay [1] was no more than 1000 nM; in assay [2], no more than 30 nM.
Consider `C=CCn1c(=O)c2cnc(Nc3ccc(N4CCN(C)CC4)cc3)nc2n1-c1cc(C(F)(F)F)c(=O)n(C(C)C)c1` [Compound 25], for which the concentration for half-maximal inhibition (IC50) was no more than 1000 nM in assay [1] and no more than 30 nM in assay [2].
Regarding `C=CCn1c(=O)c2cnc(Nc3ccc(N4CCN(C)CC4)cc3)nc2n1-c1cc(C(F)F)c(=O)n(C(C)C)c1` [Compound 26], the IC50 is no more than 1000 nM in assay [1] and no more than 30 nM in assay [2].
For the compound `C=CCn1c(=O)c2cnc(Nc3ccc(N4CCN(C)CC4)cc3)nc2n1-c1cc(OC)c(=O)n(C(C)C)c1` [Compound 27], the IC50 in assay [1] is greater than 3000 nM; in assay [2], 30 to 100 nM.
In the case of `C=CCn1c(=O)c2cnc(Nc3ccc(N4CCN(C)CC4)cc3)nc2n1-c1cc(C#N)c(=O)n(C(C)C)c1` [Compound 28], the IC50 was greater than 3000 nM in assay [1] and 30 to 100 nM in assay [2].
Taken in the same sequence, the figures for `C=CCn1c(=O)c2cnc(Nc3ccc(N4CCN(C)CC4)cc3)nc2n1-c1cn(C(C)C)c(=O)cc1C` [Compound 29] were no more than 1000 nM and no more than 30 nM.
Turning to `C=CCn1c(=O)c2cnc(Nc3ccc(N4CCN(C)CC4)cc3)nc2n1-c1cn(C(C)C)c(=O)cc1OC` [Compound 30], the IC50 in assay [1] was greater than 3000 nM; in assay [2], 30 to 100 nM.
Turning to `C=CCn1c(=O)c2cnc(Nc3ccc(N4CCNCC4)cc3)nc2n1-c1ccc(=O)n(C(C)C)n1` [Compound 31], the IC50 in assay [1] is no more than 1000 nM; in assay [2] it was no more than 30 nM.
With `C=CCn1c(=O)c2cnc(Nc3ccc(N4CCN(CC)CC4)cc3)nc2n1-c1ccc(=O)n(C(C)C)n1` [Compound 32], the IC50 is no more than 1000 nM in assay [1] and no more than 30 nM in assay [2].
Consider `C=CCn1c(=O)c2cnc(Nc3ccc(N4CCN(C5CC5)CC4)cc3)nc2n1-c1ccc(=O)n(C(C)C)n1` [Compound 33], for which the IC50 in assay [1] is no more than 1000 nM; in assay [2], no more than 30 nM.
Regarding `C=CCn1c(=O)c2cnc(Nc3ccc(N4CCN(C5CCC5)CC4)cc3)nc2n1-c1ccc(=O)n(C(C)C)n1` [Compound 34], the IC50 is no more than 1000 nM in assay [1] and no more than 30 nM in assay [2].
Taken in the same sequence, the figures for `C=CCn1c(=O)c2cnc(Nc3ccc(N4CCN(C5COC5)CC4)cc3)nc2n1-c1ccc(=O)n(C(C)C)n1` [Compound 35] were no more than 1000 nM and no more than 30 nM.
Regarding `C=CCn1c(=O)c2cnc(Nc3ccc(N4CCN(C5CCN(C)CC5)CC4)cc3)nc2n1-c1ccc(=O)n(C(C)C)n1` [Compound 36], the IC50 in assay [1] is no more than 1000 nM; in assay [2], no more than 30 nM.
On to `C=CCn1c(=O)c2cnc(Nc3ccc(N4CCN(CCF)CC4)cc3)nc2n1-c1ccc(=O)n(C(C)C)n1` [Compound 37], for which the IC50 in assay [1] was no more than 1000 nM; in assay [2] it was no more than 30 nM.
In the case of `C=CCn1c(=O)c2cnc(Nc3ccc(N4CCN(CC(F)F)CC4)cc3)nc2n1-c1ccc(=O)n(C(C)C)n1` [Compound 38], the results for the IC50 in assay [1] and in assay [2] were no more than 1000 nM and no more than 30 nM, respectively.
As for `C=CCn1c(=O)c2cnc(Nc3ccc(N4CCN(CC(F)(F)F)CC4)cc3)nc2n1-c1ccc(=O)n(C(C)C)n1` [Compound 39], the IC50 in assay [1] is no more than 1000 nM; in assay [2] it was no more than 30 nM.
For the compound `C=CCn1c(=O)c2cnc(Nc3ccc(N4CCN(CC#N)CC4)cc3)nc2n1-c1ccc(=O)n(C(C)C)n1` [Compound 40], the IC50 in assay [1] is no more than 1000 nM; in assay [2], no more than 30 nM.
As for `C=CCn1c(=O)c2cnc(Nc3ccc(N4CCNCC4)c(C)c3)nc2n1-c1ccc(=O)n(C(C)C)n1` [Compound 41], the IC50 in assay [1] was no more than 1000 nM; in assay [2], no more than 30 nM.
Regarding `C=CCn1c(=O)c2cnc(Nc3ccc(N4CCN(C)CC4)c(C)c3)nc2n1-c1ccc(=O)n(C(C)C)n1` [Compound 42], the IC50 in assay [1] is no more than 1000 nM; in assay [2], no more than 30 nM.
On to `C=CCn1c(=O)c2cnc(Nc3ccc(N4CCN(C)CC4)c(F)c3)nc2n1-c1ccc(=O)n(C(C)C)n1` [Compound 44], for which the values for the IC50 in assay [1] and in assay [2] were no more than 1000 nM and no more than 30 nM, respectively.
As to `C=CCn1c(=O)c2cnc(Nc3ccc(N4CCNCC4)c(Cl)c3)nc2n1-c1ccc(=O)n(C(C)C)c1` [Compound 45], the IC50 in assay [1] was no more than 1000 nM; in assay [2], no more than 30 nM.
For `C=CCn1c(=O)c2cnc(Nc3ccc(N4CCN(C)CC4)c(Cl)c3)nc2n1-c1ccc(=O)n(C(C)C)c1` [Compound 46], the IC50 in assay [1] is no more than 1000 nM; in assay [2], no more than 30 nM.
For `C=CCn1c(=O)c2cnc(Nc3ccc(N4CCNCC4)c(OC)c3)nc2n1-c1ccc(=O)n(C(C)C)c1` [Compound 47] the same measures were no more than 1000 nM and no more than 30 nM.
